Laboratory results taken from ChEMBL document CHEMBL5352388 (Eur J Med Chem, 2022).

Tests used:
[1] = molecular target: Lysine-specific histone demethylase 1A (Homo sapiens, UniProt O60341)
Description: Inhibition of recombinant human LSD1 using fluorometric substrate by HRP based fluorimeter microplate reader assay

[2] = tested on: MGC-803; assay: cells; details: Homo sapiens, MGC-803, 72 h
Description: Antiproliferative activity against human MGC-803 cells assessed as inhibition of cell growth incubated for 72 hrs by CCK-8 assay

[3] = tested on: HeLa; assay: Antiproliferative activity against human HeLa cells assessed as inhibition of cell growth incubated for 72 hrs by CCK-8 assay; format: functional, cell-based
[4] = tested on: NCI-H460; assay: cells; details: Homo sapiens, NCI-H460, 72 h
Description: Antiproliferative activity against human NCI-H460 cells assessed as inhibition of cell growth incubated for 72 hrs by CCK-8 assay

[5] = in vitro; details: human, THLE-2 cells
Description: Antiproliferative activity against human THLE-2 cells assessed as inhibition of cell growth incubated for 72 hrs by CCK-8 assay

[6] = tested on: A549; assay: cells; details: Homo sapiens, A549, 72 h
Description: Antiproliferative activity against human A549 cells assessed as inhibition of cell growth incubated for 72 hrs by CCK-8 assay

[7] = tested on: MCF7; assay: cells; details: Homo sapiens, MCF7, 72 h
Description: Antiproliferative activity against human MCF7 cells assessed as inhibition of cell growth incubated for 72 hrs by CCK-8 assay

Compound	IC50 [1]	IC50 [2]	IC50 [3]	IC50 [4]	IC50 at 72 h [5]	IC50 [6]	IC50 [7]
Cc1ccc(-c2cc3[nH]cc(C(=O)NC4CCNCC4)c3cc2-c2ccc(C#N)cc2)cc1	0.335 µM	–	–	–	–	–	–
Cc1ccc(-c2cc3[nH]cc(C(=O)NCCCN)c3cc2-c2ccc(C#N)cc2)cc1	0.15 µM	–	–	–	–	–	–
Cc1ccc(-c2cc3c(cc2-c2ccc(C#N)cc2)c(C(=O)N2CCC(N)CC2)cn3S(=O)(=O)c2ccc(C#N)cc2)cc1	0.11 µM	–	–	–	–	–	–
N#Cc1ccc(-c2cc3c(C(=O)N4CCC(N)CC4)c[nH]c3cc2-c2cncnc2)cc1	0.954 µM	–	–	–	–	–	–
Cc1ccc(-c2cc3[nH]cc(C(=O)N4CCC[C@H](N)C4)c3cc2-c2ccc(C#N)cc2)cc1	0.085 µM	9 µM	11.4 µM	16.2 µM	17.5 µM	8.8 µM	6.1 µM
Cc1ccc(-c2cc3[nH]cc(C(=O)NC4CCNC4)c3cc2-c2ccc(C(N)=O)cc2)cc1 (stereo unspecified)	24 µM	–	–	–	–	–	–
Cc1ccc(-c2cc3[nH]cc(C(=O)NCC4CCNC4)c3cc2-c2ccc(C#N)cc2)cc1 (stereo unspecified)	0.208 µM	–	–	–	–	–	–
Cc1ccc(-c2cc3[nH]cc(C(=O)N4CCNCC4)c3cc2-c2ccc(C#N)cc2)cc1	0.061 µM	9.8 µM	15.3 µM	22.3 µM	19.1 µM	2.3 µM	12.3 µM
Cc1ccc(-c2cc3[nH]cc(C(=O)N4CCC(N)CC4)c3cc2-c2ccc(C#N)cc2C)cc1	0.6 µM	–	–	–	–	–	–
Cc1ccc(CS(=O)(=O)n2cc(C(=O)N3CCC(N)CC3)c3cc(-c4ccc(C#N)cc4)c(-c4ccc(C)cc4)cc32)cc1	1.74 µM	–	–	–	–	–	–
CCn1cc(C(=O)N2CCC(N)CC2)c2cc(-c3ccc(C#N)cc3)c(-c3ccc(C)cc3)cc21	0.028 µM	–	–	–	–	–	–
Cc1ccc(-c2cc3c(cc2-c2ccc(C#N)cc2)c(C(=O)N2CCC(N)CC2)cn3Cc2cccc(Br)c2)cc1	0.554 µM	–	–	–	–	–	–
Cc1ccc(-c2cc3[nH]cc(C(=O)N4CCC(CN)CC4)c3cc2-c2ccc(C#N)cc2)cc1	0.135 µM	–	–	–	–	–	–
Cc1ccc(-c2cc3c(cc2-c2ccc(C(N)=O)cc2)c(C(=O)NC2CCNCC2)cn3C)cc1	20 µM	–	–	–	–	–	–
Cc1ccc(-c2cc3[nH]cc(C(=O)N4CCC(N)CC4)c3cc2-c2ccc(C#N)cc2)cc1F	0.103 µM	15.6 µM	16.6 µM	29.3 µM	29.9 µM	3.5 µM	10.2 µM
Cc1ccc(-c2cc3[nH]cc(C(=O)N4CCC(N)CC4)c3cc2-c2ccc(C#N)cc2)cc1C	0.05 µM	15.6 µM	13.7 µM	18.6 µM	20.8 µM	4.3 µM	14.7 µM
Cc1ccc(-c2cc3c(cc2-c2ccc(C#N)cc2)c(C(=O)N2CCC(N)CC2)cn3C)cc1	0.012 µM	5.3 µM	7.1 µM	4.7 µM	7.3 µM	5.5 µM	7.1 µM
Cc1ccc(-c2cc3[nH]cc(C(=O)NC4CCCNC4)c3cc2-c2ccc(C#N)cc2)cc1 (stereo unspecified)	0.4 µM	–	–	–	–	–	–
Cc1ccc(Cn2cc(C(=O)N3CCC(N)CC3)c3cc(-c4ccc(C#N)cc4)c(-c4ccc(C)cc4)cc32)cc1	0.858 µM	–	–	–	–	–	–
CCc1ccc(-c2cc3[nH]cc(C(=O)N4CCC(N)CC4)c3cc2-c2ccc(C#N)cc2)cc1	0.123 µM	12.9 µM	14.7 µM	26.9 µM	29.6 µM	17.3 µM	14.7 µM
Cc1ccc(-c2cc3c(cc2-c2ccc(C#N)cc2)c(C(=O)N2CCC(N)CC2)cn3C2CC2)cc1	0.018 µM	–	–	–	–	–	–
COc1ccc(-c2cc3[nH]cc(C(=O)N4CCC(N)CC4)c3cc2-c2ccc(C#N)cc2)c(F)c1	0.208 µM	–	–	–	–	–	–

Compound	IC50 [1]	IC50 [2]	IC50 [3]	IC50 [4]	IC50 at 72 h [5]	IC50 [6]	IC50 [7]
Cc1ccc(-c2cc3[nH]cc(C(=O)N4CCC(N)CC4)c3cc2-c2ccc(S(N)(=O)=O)cc2)cc1	23 µM	–	–	–	–	–	–
CC(=O)Nc1ccc(S(=O)(=O)n2cc(C(=O)N3CCC(N)CC3)c3cc(-c4ccc(C#N)cc4)c(-c4ccc(C)cc4)cc32)cc1	0.165 µM	–	–	–	–	–	–
Cc1ccc(-c2cc3c(cc2-c2ccc(C#N)cc2)c(C(=O)N2CCC(N)CC2)cn3Cc2ccc(Br)cc2)cc1	1 µM	–	–	–	–	–	–
Cc1ccc(-c2cc3[nH]cc(C(=O)N4CCC(N)CC4)c3cc2-c2ccc(O)cc2)cc1	5 µM	–	–	–	–	–	–
Cc1cc(C)cc(-c2cc3[nH]cc(C(=O)N4CCC(N)CC4)c3cc2-c2ccc(C#N)cc2)c1	0.061 µM	8.8 µM	10 µM	13.6 µM	11.8 µM	5.3 µM	7 µM
Cc1ccc(-c2cc3[nH]cc(C(=O)N4CCC(N)CC4)c3cc2-c2ccc(C#N)cc2)c(F)c1	0.063 µM	24 µM	27 µM	28.3 µM	27.8 µM	2.3 µM	16.9 µM
Cc1ccc(-c2cc3[nH]cc(C(=O)NCCN)c3cc2-c2ccc(C#N)cc2)cc1	0.18 µM	–	–	–	–	–	–
Cc1ccc(-c2cc3[nH]cc(C(=O)N4CCC(N)CC4)c3cc2-c2ccc(C#N)nc2)cc1	0.114 µM	–	–	–	–	–	–
Cc1ccc(-c2cc3[nH]cc(C(=O)N[C@H]4CC[C@H](N)CC4)c3cc2-c2ccc(C#N)cc2)cc1	0.65 µM	–	–	–	–	–	–
Cc1ccc(-c2cc3[nH]cc(C(=O)NC4CCNC4)c3cc2-c2ccc(C#N)cc2)cc1 (stereo unspecified)	0.369 µM	–	–	–	–	–	–
Cc1ccc(-c2cc3[nH]cc(C(=O)N4CCC(N)CC4)c3cc2-c2ccc(C#N)c(F)c2)cc1	0.087 µM	12.1 µM	13.4 µM	17.7 µM	13.3 µM	2.7 µM	14.7 µM
Cc1ccc(-c2cc3[nH]cc(C(=O)NCC4CCNCC4)c3cc2-c2ccc(C#N)cc2)cc1	0.06 µM	9.8 µM	12.6 µM	9.4 µM	16.1 µM	15.4 µM	8.5 µM
Cc1ccc(-c2cc3[nH]cc(C(=O)N4CCC[C@@H](N)C4)c3cc2-c2ccc(C#N)cc2)cc1	0.339 µM	–	–	–	–	–	–
Cc1ccc(-c2cc3c(cc2-c2ccc(C#N)cc2)c(C(=O)N2CCC(N)CC2)cn3C(C)C)cc1	0.015 µM	–	–	–	–	–	–
N#Cc1ccc(-c2cc3c(C(=O)N4CCC(N)CC4)c[nH]c3cc2-c2ccoc2)cc1	0.969 µM	–	–	–	–	–	–
Cc1ccc(-c2cc3[nH]cc(C(=O)N4CCC(N)CC4)c3cc2-c2ccc(C(N)=O)cc2)cc1	22 µM	–	–	–	–	–	–
Cc1ccc(-c2cc3[nH]cc(C(=O)N4CCC(N)CC4)c3cc2-c2ccc(C#N)cc2)cc1	0.053 µM	9.3 µM	14.2 µM	27.6 µM	23.9 µM	4.2 µM	10 µM
Cc1ccc(-c2cc3[nH]cc(C(=O)N4CCC(N)CC4)c3cc2-c2ccc([N+](=O)[O-])cc2)cc1	20 µM	–	–	–	–	–	–
Cc1ccc(-c2cc3[nH]cc(C(=O)N4CCC(N)CC4)c3cc2-c2ccc(C#N)cc2)c(C)c1	0.118 µM	–	–	–	–	–	–
N#Cc1ccc(-c2cc3c(C(=O)N4CCC(N)CC4)c[nH]c3cc2-c2ccc(C(F)(F)F)cc2)cc1	0.897 µM	–	–	–	–	–	–
Cc1ccc(-c2cc3c(cc2-c2ccc(C#N)cc2)c(C(=O)N2CCC(N)CC2)cn3Cc2ccc(Cl)cc2)cc1	0.691 µM	–	–	–	–	–	–
Cc1ccc(-c2cc3c(cc2-c2ccc(C#N)cc2)c(C(=O)N2CCC(N)CC2)cn3Cc2cccc(C#N)c2)cc1	0.161 µM	4.6 µM	6.6 µM	7.7 µM	5.8 µM	3.4 µM	6.7 µM
